Laboratory results as given in patent US8101411B2, “Method for production of corosolic acid in suspension culture of plant cells” (Samyang Genex Corporation, priority 2005, dated 2012).

Tests used:
[1] = test system: suspension-cultured cells of Eriobotrya japonica; test: Addition of inducing agent (elicitor) at the production stage of two-stage high cell-density suspension culture; type: cell-based; details: for Productivity of Corosolic acid / Productivity of Corosolic acid (% DW) / Cell Dry Weight: 14 days
Experimental: The cell dry weight was obtained by filtering sampled plant cell culture through Watman no. 4 filter paper using a Buchner funnel, and oven drying at a temperature of 60° C. for 24 hours. […] The % DW (Dry Weight) was calculated from the calculated concentration of corosolic acid. […] The volumetric productivity (mg/L) was calculated by multiplying the calculated % DW content with the cell concentration (g/L, DW) in cell culture. 50 ml of the cell lines which were obtained in EXAMPLE 1-2 were cultured in LS medium with addition of 10 μM of NAA and 1 μM of BA, and collected after 7 days, and 50 ml of 2× concentration of mB5 medium were mixed and cultured in a 250 ml flask. […] The Eriobotrya japonica cells were cultured according to the method of Example 3,except that the concentration of sucrose added to the mB5 medium as the carbon source at the production stage, and the inoculation ratio of Eriobotrya japonica cell were varied as in Table 7. […] In the two-stage culture by using high cell-density culture of Example 4, 6% of sucrose was added to mB5 medium at the production stage, and the inoculated amount was 6 g/L cell dry weight.

[2] = test system: absorption of glucose into cells; details: similar to that of insulin; Chem Pharm. Bull. 41(12): 2129-2131, 1993; cited from earlier work
[3] = cited from earlier work
[4] = AgNO3 2 μM, added at 0-day culture
[5] = AgNO3 4 μM, added at 0 day culture
[6] = AgNO3 6 μM, added at 0-day culture
[7] = Methyl jasmonate 400 μM, added at 3-day culture
[8] = Sodium butyrate 1.0 mM, added at 3-day culture

Molecule: O=[N+]([O-])[O-].[Ag+] [AgNO3, silver nitrate]
- maximal concentration of cell increased by ([1]; 4 μM added, versus control): 45%
- productivity of the suspension-cultured cell ([1]; 2-6 μM added to the culture medium, versus control): increased the productivity
- Productivity of Corosolic acid [1, 4]: 1152.07 mg/L
- Productivity of Corosolic acid (% DW) [1, 4]: 4.42 % DW
- Cell Dry Weight ([1]; AgNO3 2 μM, added at 0-day culture, mB5, 6% sucrose, 6 g/L inoculum): 26.05 g/L
- Cell Dry Weight [1, 5]: 25.66 g/L
- Productivity of Corosolic acid [1, 5]: 1551.78 mg/L
- Productivity of Corosolic acid (% DW) [1, 5]: 6.05 % DW
- Cell Dry Weight [1, 6]: 24.57 g/L
- Productivity of Corosolic acid [1, 6]: 1335.86 mg/L
- Productivity of Corosolic acid (% DW) [1, 6]: 5.44 % DW

Molecule: CC/C=C\CC1C(=O)CCC1CC(=O)OC (stereo not shown) [Methyl jasmonate]
- amount of corosolic acid increased by ([1]; 400 μM methyl jasmonate, versus control): 100%
- Cell Dry Weight [1, 7]: 22.72 g/L
- Productivity of Corosolic acid [1, 7]: 1913.16 mg/L
- Productivity of Corosolic acid (% DW) [1, 7]: 8.42 % DW

Molecule: CCCC(=O)[O-].[Na+] [Sodium butyrate]
- amount of corosolic acid increased by ([1]; 1 mM sodium butylate, versus control): 100%
- Cell Dry Weight [1, 8]: 24.54 g/L
- Productivity of Corosolic acid [1, 8]: 2081.13 mg/L
- Productivity of Corosolic acid (% DW) [1, 8]: 8.48 % DW

Molecule: corosolic acid
- activity on absorption of glucose into cells [2]: promoting a rapid absorption of glucose into cells
- effect on blood-sugar levels ([3]; clinical demonstration, Journal of Ethnopharmacology 87: 115 117, 2003): rawer blood-sugar levels
- side effects ([3]; in vivo): without any side effects
